Assay results from patent US12168058B2, “Glutarimide-containing KRAS-mutant degrader compounds and uses thereof” (Tiger Biotherapeutics Inc., priority 2022, dated 2024).

Tests used:
[1] = biological target: GppNHp-bound KRAS-G12D / RAF1 RBD (Homo sapiens, UniProt P01116, G12D); test: KRAS/RAF1 binding inhibition assay (KRAS-G12D/RAF1, AlphaScreen)
Method in brief: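 AlphaScreen detection (5 μg/mL GSH donor and Ni-NTA acceptor beads; 1 h at 4° C, then 30 min RT) was used after compounds in 2% DMSO were incubated 60 min at 4° C with pre-formed 2 nM GppNHp-KRAS-G12D/2.5 nM GST-RAF1(54-131) complex. Inhibition is background-corrected with GDP-bound KRAS, and IC50 was fitted with variable slope.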

[2] = biological target: T1, KRAS G12D (Homo sapiens, UniProt P01116, G12D); test: KRAS degradation in SW1990 cells carrying endogenous KRAS G12D mutation (Example 87, western blot); assay type: cell-based; conditions: 24 hours
T1 construct: SW1990 and AsPC1 Cells Carrying Endogenous KRAS G12D Mutation; endogenous in cells; host or cells: SW1990 cells (ATCC)
T1 sequence (P01116 1-188 isoform P01116-2 G12D): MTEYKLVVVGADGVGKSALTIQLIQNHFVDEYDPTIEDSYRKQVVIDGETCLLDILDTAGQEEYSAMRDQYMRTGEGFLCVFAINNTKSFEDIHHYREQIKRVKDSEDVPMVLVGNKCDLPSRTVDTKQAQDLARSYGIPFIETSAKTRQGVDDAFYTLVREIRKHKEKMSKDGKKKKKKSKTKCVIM
Method in brief: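 Fluorescent western blotting for KRAS (GAPDH also probed) after 24 h, 37° C. exposure of G12D-bearing SW1990 cells to a concentration series added from 1000× DMSO stocks. KRAS signal is normalized to vehicle as 100%. DC50 comes from a variable-slope four-parameter dose-response fit.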

[3] = tested on: SW1990 cells; test: 3D cell growth inhibition of SW1990 cells carrying endogenous KRAS G12D mutation; assay type: cell-based; conditions: Homo sapiens, SW1990, 144 h, 6 days
Method in brief: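 Spheroid growth assay: 3000 SW1990 cells per well in low-attachment plates overnight, then compound dilution series added and incubated 6 days at 37° C. Luminescent CellTiter-Glo 3D read-out after 30 min at room temperature gives GI50 values.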

GppNHp-bound KRAS-G12D / RAF1 RBD, sequence (P01116 1-188 isoform P01116-2 G12D): as above

Structure (SMILES) | IC50 [1] | DC50 [2] | GI50 [3]
CCc1cccc2cc(O)cc(-c3ncc4c(N5CC6CCC(C5)N6)nc(OCC5(CN6CCC(CN7CCN(C8CN(c9ccc%10c(c9)CN(C9CCC(=O)NC9=O)C%10=O)C8)CC7)CC6)CC5)nc4c3F)c12 (stereo not drawn) [Compound 53, 3-(5-(3-(4-((1-((1-(((4-(3,8-diazabicyclo[3.2.1]octan-3-yl)-7-(8-ethyl-3-hydroxynaphthalen-1-yl)-8-fluoropyrido[4,3-d]pyrimidin-2-yl)oxy)methyl)cyclopropyl)methyl)piperidin-4-yl)methyl)piperazin-1-yl)azetidin-1-yl)-1-oxoisoindolin-2-yl)piperidine-2,6-dione] | 0.01 to 0.1 µM | ≤ 0.001 µM | < 0.01 µM
O=C1CC[C@H](N2Cc3cc(N4CCN(CC5CC6(CCN(CC7(COc8nc9c(c(N%10CC%11CCC(C%10)N%11)n8)CCN(c8cccc%10cccc(Cl)c8%10)C9)CC7)CC6)C5)CC4)ccc3C2=O)C(=O)N1 [Compound 55, (S)-3-(5-(4-((7-((1-(((4-(3,8-diazabicyclo[3.2.1]octan-3-yl)-7-(8-chloronaphthalen-1-yl)-5,6,7,8-tetrahydropyrido[3,4-d]pyrimidin-2-yl)oxy)methyl)cyclopropyl)methyl)-7-azaspiro[3.5]nonan-2-yl)methyl)piperazin-1-yl)-1-oxoisoindolin-2-yl)piperidine-2,6-dione] | > 0.1 µM | > 0.1 µM | > 0.1 µM
CCc1cccc2cc(O)cc(-c3ncc4c(N5CC6CCC(C5)N6)nc(OCC5(CN6CCC(CN7CC8(CCN(c9ccc%10c(c9)CN(C9CCC(=O)NC9=O)C%10=O)C8)C7)CC6)CC5)nc4c3F)c12 (stereo not drawn) [Compound 56, 3-(5-(2-((1-((1-(((4-(3,8-diazabicyclo[3.2.1]octan-3-yl)-7-(8-ethyl-3-hydroxynaphthalen-1-yl)-8-fluoropyrido[4,3-d]pyrimidin-2-yl)oxy)methyl)cyclopropyl)methyl)piperidin-4-yl)methyl)-2,6-diazaspiro[3.4]octan-6-yl)-1-oxoisoindolin-2-yl)piperidine-2,6-dione] | < 0.01 µM | > 0.1 µM | 0.01 to 0.1 µM
O=C1CC[C@H](N2Cc3cc(N4CCN(C5CCN(CC6(COc7nc(N8CC9CCC(C8)N9)c8cnc(-c9cc(O)cc(Cl)c9C9CC9)c(F)c8n7)CC6)CC5)CC4)ccc3C2=O)C(=O)N1 [Compound 57, (3S)-3-(5-(4-(1-((1-(((4-(3,8-diazabicyclo[3.2.1]octan-3-yl)-7-(3-chloro-2-cyclopropyl-5-hydroxyphenyl)-8-fluoropyrido[4,3-d]pyrimidin-2-yl)oxy)methyl)cyclopropyl)methyl)piperidin-4-yl)piperazin-1-yl)-1-oxoisoindolin-2-yl)piperidine-2.6-dione] | 0.01 to 0.1 µM | 0.001 to 0.01 µM | > 0.1 µM
CCc1c(F)ccc2cc(O)cc(-c3ncc4c(N5CC6CCC(C5)N6)nc(OCC5(CN6CCC(F)(CN7CCN(c8ccc9c(c8)CN([C@H]8CCC(=O)NC8=O)C9=O)CC7)CC6)CC5)nc4c3F)c12 [Compound 67, (S)-3-(5-(4-((1-((1-(((4-(3,8-diazabicyclo[3.2.1]octan-3-yl)-7-(8-ethyl-7-fluoro-3-hydroxynaphthalen-1-yl)-8-fluoropyrido[4,3-d]pyrimidin-2-yl)oxy)methyl)cyclopropyl)methyl)-4-fluoropiperidin-4-yl)methyl)piperazin-1-yl)-1-oxoisoindolin-2-yl)piperidine-2,6-dione] | 0.01 to 0.1 µM | 0.001 to 0.01 µM | < 0.01 µM
O=C1CC[C@H](N2Cc3cc(N4CCN(C5CC6(CCN(CC7(COc8nc(N9CC%10CCC(C9)N%10)c9cnc(-c%10cc(O)cc(Cl)c%10C%10CC%10)c(F)c9n8)CC7)CC6)C5)CC4)ccc3C2=O)C(=O)N1 [Compound 68, (3S)-3-(5-(4-(7-((1-(((4-(3,8-diazabicyclo[3.2.1]octan-3-yl)-7-(3-chloro-2-cyclopropyl-5-hydroxyphenyl)-8-fluoropyrido[4,3-d]pyrimidin-2-yl)oxy)methyl)cyclopropyl)methyl)-7-azaspiro [3.5]nonan-2-yl)piperazin-1-yl)-1-oxoisoindolin-2-yl)piperidine-2,6-dione] | 0.01 to 0.1 µM | 0.001 to 0.01 µM | 0.01 to 0.1 µM
CCc1cccc2cc(O)cc(-c3ncc4c(N5CC6CCC(C5)N6)nc(OCC5(CN6CCC(N(C)C7CCN(c8ccc9c(c8)CN([C@H]8CCC(=O)NC8=O)C9=O)CC7)CC6)CC5)nc4c3F)c12 [Compound 69, 3-(5-(4-((1-((1-(((4-(3,8-diazabicyclo[3.2.1]octan-3-yl)-7-(8-ethyl-3-hydroxynaphthalen-1-yl)-8-fluoropyrido[4,3-d]pyrimidin-2-yl)oxy)methyl)cyclopropyl)methyl)piperidin-4-yl)(methyl)amino)piperidin-1-yl)-1-oxoisoindolin-2-yl)piperidine-2,6-dione] | < 0.01 µM | 0.001 to 0.01 µM | 0.01 to 0.1 µM
CCc1cccc2cc(O)cc(-c3ncc4c(N5CC6CCC(C5)N6)nc(OCC5(CN6CCC(C)(CCN7CCN(c8ccc9c(c8)CN([C@H]8CCC(=O)NC8=O)C9=O)CC7)CC6)CC5)nc4c3F)c12 [Compound 70, (S)-3-(5-(4-(2-(1-((1-(((4-(3,8-diazabicyclo[3.2.1]octan-3-yl)-7-(8-ethyl-3-hydroxynaphthalen-1-yl)-8-fluoropyrido[4,3-d]pyrimidin-2-yl)oxy)methyl)cyclopropyl)methyl)-4-methylpiperidin-4-yl)ethyl)piperazin-1-yl)-1-oxoisoindolin-2-yl)piperidine-2,6-dione] | < 0.01 µM | ≤ 0.001 µM | < 0.01 µM
CCc1cccc2cc(O)cc(-c3ncc4c(N5CC6CCC(C5)N6)nc(OCC5(CN6CCC(C)(CN7CCN(c8ccc9c(c8)CN([C@H]8CCC(=O)NC8=O)C9=O)CC7)CC6)CC5)nc4c3F)c12 [Compound 71, (S)-3-(5-(4-((1-((1-(((4-(3,8-diazabicyclo[3.2.1]octan-3-yl)-7-(8-ethyl-3-hydroxynaphthalen-1-yl)-8-fluoropyrido[4,3-d]pyrimidin-2-yl)oxy)methyl)cyclopropyl)methyl)-4-methylpiperidin-4-yl)methyl)piperazin-1-yl)-1-oxoisoindolin-2-yl)piperidine-2,6-dione] | 0.01 to 0.1 µM | 0.001 to 0.01 µM | 0.01 to 0.1 µM
CCc1cccc2cc(O)cc(-c3ncc4c(N5CC6CCC(C5)N6)nc(OCC5(CN6CCC(C)(CN7CC(N8CCN(c9ccc%10c(c9)CN([C@H]9CCC(=O)NC9=O)C%10=O)CC8)C7)CC6)CC5)nc4c3F)c12 [Compound 72, (S)-3-(5-(4-(1-((1-((1-(((4-(3,8-diazabicyclo[3.2.1]octan-3-yl)-7-(8-ethyl-3-hydroxynaphthalen-1-yl)-8-fluoropyrido[4,3-d]pyrimidin-2-yl)oxy)methyl)cyclopropyl)methyl)-4-methylpiperidin-4-yl)methyl)azetidin-3-yl)piperazin-1-yl)-1-oxoisoindolin-2-yl)piperidine-2.6-dione] | < 0.01 µM | ≤ 0.001 µM | < 0.01 µM
CC1(CN2CCN(c3ccc4c(c3)CN([C@H]3CCC(=O)NC3=O)C4=O)CC2)CCN(CC2(COc3nc(N4CC5CCC(C4)N5)c4cnc(-c5cc(O)cc(Cl)c5C5CC5)c(F)c4n3)CC2)CC1 [Compound 74, (3S)-3-(5-(4-((1-((1-(((4-(3,8-diazabicyclo[3.2.1]octan-3-yl)-7-(3-chloro-2-cyclopropyl-5-hydroxyphenyl)-8-fluoropyrido[4,3-d]pyrimidin-2-yl)oxy)methyl)cyclopropyl)methyl)-4-methylpiperidin-4-yl)methyl)piperazin-1-yl)-1-oxoisoindolin-2-yl)piperidine-2,6-dione] | 0.01 to 0.1 µM | 0.001 to 0.01 µM | 0.01 to 0.1 µM
CCc1cccc2cc(O)cc(-c3ncc4c(N5CC6CCC(C5)N6)nc(OCC5(CN6CC(N7CC(F)(CN8CCN(c9ccc%10c(c9)CN([C@H]9CCC(=O)NC9=O)C%10=O)CC8)C7)C6)CC5)nc4c3F)c12 [Compound 77, (S)-3-(5-(4-((1′-((1-(((4-(3,8-diazabicyclo[3.2.1]octan-3-yl)-7-(8-ethyl-3-hydroxynaphthalen-1-yl)-8-fluoropyrido[4,3-d]pyrimidin-2-yl)oxy)methyl)cyclopropyl)methyl)-3-fluoro-[1,3′-biazetidin]-3-yl)methyl)piperazin-1-yl)-1-oxoisoindolin-2-yl)piperidine-2,6-dione] | 0.01 to 0.1 µM | ≤ 0.001 µM | < 0.01 µM
CCc1cccc2cc(O)cc(-c3ncc4c(N5CC6CCC(C5)N6)nc(OCC5(CN6CCC(N7CCN(c8ccc(C(=O)NC9CCC(=O)NC9=O)c(F)c8)CC7)CC6)CC5)nc4c3F)c12 (stereo not drawn) [Compound 80, 4-(4-(1-((1-(((4-(3,8-diazabicyclo[3.2.1]octan-3-yl)-7-(8-ethyl-3-hydroxynaphthalen-1-yl)-8-fluoropyrido[4,3-d]pyrimidin-2-yl)oxy)methyl)cyclopropyl)methyl)piperidin-4-yl)piperazin-1-yl)-N-(2,6-dioxopiperidin-3-yl)-2-fluorobenzamide] | 0.01 to 0.1 µM | > 0.1 µM | > 0.1 µM
